The source of these data is patent US6291194A, “Assay for determination of androgenic or anti-androgenic activity of a serum sample or a test compound” (priority 2000, dated 2001).

For series [1] the following is noted: cited from earlier work.
Another series has as its target T1, androgen receptor (AR) (Homo sapiens, UniProt P10275).
T1 construct: The LBD of human AR (containing amino acids 657-919); expressed in transfected cells; host or cells: COS-1 cells (ATCC CRL1650)
Briefly: COS-1 bioassay, inhibition by nonsteroidal antiandrogens of testosterone-induced AR LBD / N-terminal interaction. The class given is cell-based.

T1 sequence (P10275 with tags, fused parts or gaps limits assumed): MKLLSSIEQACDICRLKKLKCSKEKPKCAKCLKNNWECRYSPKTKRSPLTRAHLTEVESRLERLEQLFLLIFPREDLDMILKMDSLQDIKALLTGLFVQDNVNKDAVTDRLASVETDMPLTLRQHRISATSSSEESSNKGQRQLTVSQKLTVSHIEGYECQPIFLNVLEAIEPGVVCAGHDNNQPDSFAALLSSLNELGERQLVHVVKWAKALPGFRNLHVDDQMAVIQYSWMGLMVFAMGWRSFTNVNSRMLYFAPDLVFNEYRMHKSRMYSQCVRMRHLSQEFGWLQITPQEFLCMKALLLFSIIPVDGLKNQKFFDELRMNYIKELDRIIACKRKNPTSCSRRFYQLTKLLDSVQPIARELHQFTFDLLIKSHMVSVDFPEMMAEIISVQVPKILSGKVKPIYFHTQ

`C[C@]12CC[C@H]3[C@@H](CCC4=CC(=O)CC[C@@]43C)[C@@H]1CC[C@@H]2O` [testosterone, Testosterone]: the “free fraction of total testosterone in serum” value in series [1] was 2-3%.
With `CC(C)(O)C(=O)Nc1ccc([N+](=O)[O-])c(C(F)(F)F)c1` [hydroxyflutamide, 4-hydroxy-α,α,α-trifluoro-2-methyl-4'-nitro-m-propionotoluidide], the “effect on interaction between AR termini / relative luciferase activity (in words)” value at androgen receptor (AR) was “suppressed relative luciferase activity”. For the same compound, the “relative luciferase activity as % of activity with testosterone-containing FCS without antiandrogen” value on androgen receptor (AR) (100 times molar amount of testosterone (10 nmol/L testosterone in FCS)) is recorded as ~ 5%.
